Experimental findings from US12053506B2, “Romo1-derived antimicrobial peptides and variants thereof” (priority 2019, dated 2024) are described below.

Assay [1] concerns Pseudomonas aeruginosa (ATCC 27853). In kind it is cell-based. An outline of the steps: (§1)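 Bacteria grown in 3% TSB at 37° C, diluted in 10 mM sodium phosphate/1% TSB to 1×10^5 CFU/ml in wells, exposed to peptides (0–300 μg/ml) for 1 h at 37° C. Mixtures plated on TS agar for 18 h at 37° C; MBC is the lowest concentration giving no colonies.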
For assay [2], the system named is Staphylococcus aureus (ATCC 29213). In kind it is cell-based. An outline of the steps:
as §1

The subject of assay [3] is multidrug-resistant Pseudomonas aeruginosa. As to conditions: 4 h. On the procedure:
First, each of Pseudomonas aeruginosa (ATCC 27853) and Staphylococcus aureus (ATCC 29213) was cultured in 3% (w/v) TSB (Tryptic Soy Broth) liquid medium at 37° C. and 200 rpm for 4 hours, and then further cultured under the same conditions for 3 hours to a concentration of 5×10^6 CFU/ml. Strain solutions were prepared by diluting each of the further cultured strains with SP (sodium phosphate; 10 mM sodium phosphate, 1% TSB) buffer to a final concentration of 2×10^5 CFU/ml.
Then, each peptide at varying concentrations (0 μg/ml to 300 μg/ml) was dispensed into each well of a 96-well microplate, and 100 μl (1×10^5 CFU/ml) of each of the prepared strain solutions was added thereto, mixed therewith, and allowed to react with the peptide in an incubator at 37° C. for 1 hour.
In addition, 30 g/L of TS (tryptic soy) and 15 g/L of agar were dissolved in distilled water and sterilized, and then 25 ml of the solution was poured onto a 100 mm round plate and solidified at room temperature for one day or more, thereby preparing a TS agar plate. 10 μl of each reaction solution of the peptide and the strain was plated on the TS agar plate at a constant size, and incubated in an incubator at 37° C. for 18 hours, and then colony formation on the plate was checked.
Specifically, each type of bacteria was cultured in 3% (w/v) TSB (Tryptic Soy Broth) liquid medium at 37° C. and 200 rpm for 4 hours, and then further cultured under the same conditions for 3 hours to a concentration of 5×10^6 CFU/ml. Strain solutions were prepared by diluting each of the […] of 2×10^5 CFU/ml.
Then, the KU-5878 peptide at varying concentrations (0 μg/ml to 300 μg/ml) was dispensed into each well of a 96-well microplate, and 100 μl (1×10^5 CFU/ml) of each of the prepared strain solutions was added thereto, mixed therewith, and allowed to react with the peptide in an incubator at 37° C. for 1 hour.
In addition, 10 μl of each reaction solution of the peptide and the strain was plated on the TS agar plate at a constant size, and incubated in an incubator at 37° C. for 18 hours, and then colony formation on the plate was checked.
Meanwhile, the multidrug-resistant Pseudomonas aeruginosa, multidrug-resistant Acinetobacter and multidrug-resistant Klebsiella in Table 2 below were bacteria isolated from patients at Korea University Anam Hospital. […] Then, these bacteria were used in the experiment.

No end group written: not given here.

On to KTMMQSGGTFGTFMAIGMGIR [KU-5878], for which the “MBC (μg/ml) value against Pseudomonas aeruginosa” value in assay [1] (ATCC 27853) is 100 µg/mL. Also, the “MBC value (μg/ml) against Pseudomonas aeruginosa” value in assay [1] (ATCC 27853, 1 h) was 100 µg/mL. In addition, in assay [1] (Tables 11-15, no unit printed), the MBC Pseudomonas aeruginosa was 100 µg/mL. In addition, the “MBC (μg/ml) value against Staphylococcus aureus” value in assay [2] (ATCC 29213) worked out at 100 µg/mL. The “MBC value (μg/ml) against Staphylococcus aureus” value in assay [2] (ATCC 29213, 1 h) is 100 µg/mL. For the same sequence, the MBC Staphylococcus aureus in assay [2] (Tables 11-15, no unit printed) worked out at 100 µg/mL. For the same sequence, the “MBC value (μg/ml) against multidrug-resistant Pseudomonas aeruginosa” value in assay [3] amounted to 110 µg/mL.
